Assay results taken from patent US10590129B2 (Incozen Therapeutics Pvt. Ltd., priority 2010, dated 2020).
Structures can show the parent of a compound that is named as a salt.

Test system: MKN-45 cells
Experiment: Inhibition of MKN-45 proliferation (MTT)
Assay type: cell-based, human
Settings: for inhibition at 1 µM / GI50 / inhibition at 0.1 µM: Homo sapiens, MKN-45, MKN-45 proliferation; for Inhibition (% Inhibition of MKN-45 proliferation) / inhibition at 0.1 µM: 0.1 μM
Method: Inhibition of MKN-45 Proliferation:
Cell proliferation assays were carried out using the high Met expressing human gastric adenocarcinoma cell line, MKN-45, according to the following schedule:
Day 1: Cells were plated in 96-well plates in complete growth medium.
Day 2: Compounds at desired concentrations were added.
Day 5: Cell viability was determined using the 3-[4,5-dimethylthiazol-2-yl]-2,5-diphenyltetrazolium bromide (MTT) dye reduction test.

Row | Compound | GI50 [µM] | inhibition at 0.1 µM [%] | also measured
1 | Cl.O=C(Nc1nc[nH]n1)c1ccc(-c2ccc3nnn(Cc4ccc5ncccc5c4)c3n2)cc1F [Ex 127, 2-Fluoro-4-(3-(quinolin-6-ylmethyl)-3H-[1,2,3]triazolo[4,5-b]pyridin-5-yl)-N-(1H-1,2,4-triazol-3-yl)benzamide hydrochloride] | – | – | inhibition at 1 µM (1 μM): 75 to 100%; Inhibition (% Inhibition of MKN-45 proliferation) (MKN-45 proliferation): A (A = ≥75 to 100%)
2 | CCNC(=O)c1ccc(-c2ccc3nnn(Cc4cc5cccnc5cc4F)c3n2)cc1Cl [Ex 133, 2-Chloro-N-ethyl-4-(3-((7-fluoroquinolin-6-yl)methyl)-3H-[1,2,3]triazolo[4,5-b]pyridin-5-yl)benzamide] | ≤ 0.05 | 75 to 100 | –
3 | COC(=O)c1ccc(-c2ccc3nnn(Cc4cc5cccnc5cc4F)c3n2)cc1F [Ex 135, Methyl 2-fluoro-4-(3-((7-fluoroquinolin-6-yl)methyl)-3H-[1,2,3]triazolo[4,5-b]pyridin-5-yl)benzoate] | – | < 25 | –
4 | NC(=O)c1cccc(-c2ccc3nnn(Cc4ccc5ncccc5c4)c3n2)c1 [Ex 138, 3-(3-(Quinolin-6-ylmethyl)-3H-[1,2,3]triazolo[4,5-b]pyridin-5-yl)benzamide] | – | 25 to 50 | inhibition at 1 µM (1 μM): 75 to 100%
5 | Cl.NC(=O)c1ccc(-c2ccc3nnn(Cc4cc5cccnc5cc4F)c3n2)cc1F [Ex 141, 2-Fluoro-4-(3-((7-fluoroquinolin-6-yl)methyl)-3H-[1,2,3]triazolo[4,5-b]pyridin-5-yl)benzamide hydrochloride] | – | – | Inhibition (% Inhibition of MKN-45 proliferation) (MKN-45 proliferation): A (A = ≥75 to 100%); % inhibition @ 1 uM (MKN-45 proliferation, 1 μM): A (A = ≥75 to 100%)
6 | Cc1cc(-c2ccc3nnn(Cc4ccc5ncccc5c4)c3n2)ccc1C(N)=O [Ex 142, 2-Methyl-4-(3-(quinolin-6-ylmethyl)-3H-[1,2,3]triazolo[4,5-b]pyridin-5-yl)benzamide] | 0.05 to 0.15 | 75 to 100 | –
7 | c1cnc2ccc(Cn3nnc4ccc(-c5cn[nH]c5)nc43)cc2c1 [Ex 143, 6-((5-(1H-Pyrazol-4-yl)-3H-[1,2,3]triazolo[4,5-b]pyridin-3-yl)methyl)quinoline] | 0.05 to 0.15 | – | –
8 | Cn1cc(-c2ccc3nnn(Cc4ccc5ncccc5c4)c3n2)cn1 [Ex 144, 6-((5-(1-Methyl-1H-pyrazol-4-yl)-3H-[1,2,3]triazolo[4,5-b]pyridin-3-yl)methyl)quinoline] | 0.05 to 0.15 | – | –
9 | Cc1n[nH]c2cc(-c3ccc4nnn(Cc5ccc6ncccc6c5)c4n3)ccc12 [Ex 168, 6-((5-(3-Methyl-1H-indazol-6-yl)-3H-[1,2,3]triazolo[4,5-b]pyridin-3-yl)methyl)quinoline] | 0.15 to 0.5 | – | –
10 | c1cnc2ccc(Cn3nnc4ccc(-c5ccc6[nH]ccc6c5)nc43)cc2c1 [Ex 169, 6-((5-(1H-Indol-5-yl)-3H-[1,2,3]triazolo[4,5-b]pyridin-3-yl)methyl)quinoline] | < 1 | – | –
11 | c1cnc2ccc(Cn3nnc4ccc(-c5ccc6cc[nH]c6c5)nc43)cc2c1 [Ex 170, 6-((5-(1H-Indol-6-yl)-3H-[1,2,3]triazolo[4,5-b]pyridin-3-yl)methyl)quinoline] | < 1 | – | –
12 | Clc1cc(-c2ccc3nnn(Cc4ccc5ncccc5c4)c3n2)ccn1 [Ex 171, 6-((5-(2-Chloropyridin-4-yl)-3H-[1,2,3]triazolo[4,5-b]pyridin-3-yl)methyl)quinoline] | 0.15 to 0.5 | – | –
13 | Cc1n[nH]c2ccc(-c3ccc4nnn(Cc5ccc6ncccc6c5)c4n3)cc12 [Ex 172, 6-((5-(3-Methyl-1H-indazol-5-yl)-3H-[1,2,3]triazolo[4,5-b]pyridin-3-yl)methyl)quinoline] | < 1 | – | –
14 | c1cncc(-c2ccc3nnn(Cc4ccc5ncccc5c4)c3n2)c1 [Ex 173, 6-((5-(Pyridin-3-yl)-3H-[1,2,3]triazolo[4,5-b]pyridin-3-yl)methyl)quinoline] | < 1 | – | –
15 | c1cnc2ccc(Cn3nnc4ccc(-c5cnn([C@H]6CCNC6)c5)nc43)cc2c1 [Ex 175, (S)-6-((5-(1-(Pyrrolidin-3-yl)-1H-pyrazol-4-yl)-3H-[1,2,3]triazolo[4,5-b]pyridin-3-yl)methyl)quinoline hydrochloride] | 0.15 to 0.5 | – | –
16 | c1cnc2ccc(Cn3nnc4ccc(-c5cnn(CCN6CCOCC6)c5)nc43)cc2c1 [Ex 176, 4-(2-(4-(3-(Quinolin-6-ylmethyl)-3H-[1,2,3]triazolo[4,5-b]pyridin-5-yl)-1H-pyrazol-1-yl)ethyl)morpholine hydrochloride] | < 1 | – | –
17 | c1cnc2ccc(Cn3nnc4ccc(-c5cnn(C6CCOCC6)c5)nc43)cc2c1 [Ex 177, 6-((5-(1-(Tetrahydro-2H-pyran-4-yl)-1H-pyrazol-4-yl)-3H-[1,2,3]triazolo[4,5-b]pyridin-3-yl)methyl)quinoline] | < 1 | – | –
18 | Cc1nn(C)c2cc(-c3ccc4nnn(Cc5ccc6ncccc6c5)c4n3)ccc12 [Ex 179, 6-((5-(1,3-dimethyl-1H-indazol-6-yl)-3H-[1,2,3]triazolo[4,5-b]pyridin-3-yl)methyl)quinoline] | 0.15 to 0.5 | – | –
19 | CCc1nn(C(=O)OC(C)(C)C)c2cc(-c3ccc4nnn(Cc5ccc6ncccc6c5)c4n3)ccc12 [Ex 181, tert-Butyl 3-ethyl-6-(3-(quinolin-6-ylmethyl)-3H-[1,2,3]triazolo[4,5-b]pyridin-5-yl)-1H-indazole-1-carboxylate] | – | < 25 | inhibition at 1 µM (1 μM): 75 to 100%

Row | Compound | GI50 [µM] | inhibition at 0.1 µM [%] | also measured
20 | CC(C)(c1ccc2ncccc2c1)n1nnc2ccc(-c3cnn(CCO)c3)nc21 [Ex 190, 2-(4-(3-(2-(Quinolin-6-yl)propan-2-yl)-3H-[1,2,3]triazolo[4,5-b]pyridin-5-yl)-1H-pyrazol-1-yl)ethanol] | – | < 25 | inhibition at 1 µM (1 μM): < 25%
21 | CC(C)(c1ccc2ncccc2c1)n1nnc2ccc(-c3cn[nH]c3)nc21 [Ex 192, 6-(2-(5-(1H-Pyrazol-4-yl)-3H-[1,2,3]triazolo[4,5-b]pyridin-3-yl)propan-2-yl)quinoline] | – | < 25 | inhibition at 1 µM (1 μM): < 25%
22 | O=C(Cn1cc(-c2ccc3nnn(Cc4ccc5ncccc5c4)c3n2)cn1)N1CCCC1 [Ex 200, 1-(Pyrrolidin-1-yl)-2-(4-(3-(quinolin-6-ylmethyl)-3H-[1,2,3]triazolo[4,5-b]pyridin-5-yl)-1H-pyrazol-1-yl)ethanone] | – | < 25 | –
23 | COCCn1cc(-c2ccc3nnn(Cc4ccc5ncccc5c4)c3n2)cn1 [Ex 201, 6-((5-(1-(2-Methoxyethyl)-1H-pyrazol-4-yl)-3H-[1,2,3]triazolo[4,5-b]pyridin-3-yl)methyl)quinoline] | – | < 25 | –
24 | c1ccc(Nc2ccc3nnn(Cc4ccc5ncccc5c4)c3n2)cc1 [Ex 202, N-Phenyl-3-(quinolin-6-ylmethyl)-3H-[1,2,3]triazolo[4,5-b]pyridin-5-amine] | – | < 25 | –
25 | c1ccc(Oc2ccc3nnn(Cc4ccc5ncccc5c4)c3n2)cc1 [Ex 203, 6-((5-Phenoxy-3H-[1,2,3]triazolo[4,5-b]pyridin-3-yl)methyl)quinoline] | – | < 25 | –
26 | NC(=O)c1cc(-c2ccc3nnn(Cc4ccc5ncccc5c4)c3n2)ccc1F [Ex 206, 2-Fluoro-5-(3-(quinolin-6-ylmethyl)-3H-[1,2,3]triazolo[4,5-b]pyridin-5-yl)benzamide] | – | 50 to 75 | –
27 | NC(=O)c1ccc(-c2ccc3nnn(Cc4c(F)cc5ncccc5c4F)c3n2)cc1Cl [Ex 207, 2-Chloro-4-(3-((5,7-difluoroquinolin-6-yl)methyl)-3H-[1,2,3]triazolo[4,5-b]pyridin-5-yl)benzamide] | ≤ 0.05 | 75 to 100 | –
28 | C/C(=N/NC(N)=O)c1ccc2nnn(Cc3ccc4ncccc4c3)c2n1 [Ex 209, 2-(1-(3-(Quinolin-6-ylmethyl)-3H-[1,2,3]triazolo[4,5-b]pyridin-5-yl)ethylidene) hydrazinecarboxamide] | ≤ 0.05 | 75 to 100 | –
29 | NC(=O)c1ccc(-c2ccc3nnn(Cc4ccc5ncsc5c4)c3n2)cc1Cl [Ex 210, 4-(3-(Benzo[d]thiazol-6-ylmethyl)-3H-[1,2,3]triazolo[4,5-b]pyridin-5-yl)-2-chlorobenzamide] | ≤ 0.05 | 75 to 100 | –
30 | CC(C)(O)c1ccc(-c2ccc3nnn(Cc4ccc5ncccc5c4)c3n2)cc1F [Ex 211, 2-(2-Fluoro-4-(3-(quinolin-6-ylmethyl)-3H-[1,2,3]triazolo[4,5-b]pyridin-5-yl)phenyl)propan-2-ol] | 0.15 to 0.5 | – | –
31 | NC(=O)c1cc(-c2ccc3nnn(Cc4ccc5ncccc5c4)c3n2)ccc1Cl [Ex 212, 2-Chloro-5-(3-(quinolin-6-ylmethyl)-3H-[1,2,3]triazolo[4,5-b]pyridin-5-yl)benzamide] | – | 75 to 100 | inhibition at 1 µM (1 μM): 25 to 50%
32 | NC(=O)c1ccc(-c2ccc3ncn(Cc4ccc5ncccc5c4)c3n2)cc1Cl [Ex 215, 2-Chloro-4-(3-(quinolin-6-ylmethyl)-3H-imidazo[4,5-b]pyridin-5-yl)benzamide] | – | < 25 | –
33 | CC(=NO)c1ccc2nnn(Cc3ccc4ncccc4c3)c2n1 [Ex 216, 1-(3-(Quinolin-6-ylmethyl)-3H-[1,2,3]triazolo[4,5-b]pyridin-5-yl)ethanone oxime] | – | < 25 | –
34 | CON=C(C)c1ccc2nnn(Cc3ccc4ncccc4c3)c2n1 [Ex 217, 1-(3-(Quinolin-6-ylmethyl)-3H-[1,2,3]triazolo[4,5-b]pyridin-5-yl)ethanone O-methyl oxime] | – | 50 to 75 | –
35 | CC(=O)NN=C(C)c1ccc2nnn(Cc3ccc4ncccc4c3)c2n1 [Ex 218, N′-(1-(3-(Quinolin-6-ylmethyl)-3H-[1,2,3]triazolo[4,5-b]pyridin-5-yl)ethylidene) acetohydrazide] | – | < 25 | –
36 | CN1CCN(c2ccc3nnn(Cc4ccc5ncccc5c4)c3n2)CC1 [Ex 219, 6-((5-(4-Methylpiperazin-1-yl)-3H-[1,2,3]triazolo[4,5-b]pyridin-3-yl)methyl)quinoline] | – | < 25 | –
37 | NC(=O)c1ccc(-c2ccc3nnn(Cc4ccc5ncccc5c4)c3n2)cc1C(F)(F)F [Ex 223, 4-(3-(Quinolin-6-ylmethyl)-3H-[1,2,3]triazolo[4,5-b]pyridin-5-yl)-2-(trifluoromethyl)benzamide] | – | 75 to 100 | –
